Assay results reported in publication PMC10444817, “New proapoptotic chemotherapeutic agents based on the quinolone-3-carboxamide scaffold acting by VEGFR-2 inhibition” (Scientific Reports, 2023).
“And” between values parts separate entries of the source, which are not always exact repeats. Identical values can stand only once.

Key:
[1] = molecular target: VEGFR-2 (Homo sapiens, UniProt P35968); assay: VEGFR-2 kinase inhibition assay (Kinase-Glo MAX luminescence kit, BPS Bioscience); details: for IC50: VEGFR-2 inhibitory activity IC50, average of 3 independent runs ± SE; for Fold increase in VEGFR-2 inhibitory activity compared to para methyl substituted derivatives 10b and 10k: 4-isopropyl vs 4-CH3 analogue
[2] = system: HepG2 cells; assay: MTT cytotoxicity against HepG2 tumor cell line; details: read-out: Cytotoxic activity against HepG2 cell line IC50, 48 h, average of 3 independent runs ± SE
[3] = system: Bax; parameters: method as in Li et al. 44; details: ref Li et al. 44; cited from earlier work
[4] = system: Caspase-7; parameters: method as in Li et al. 44; details: ref Li et al. 44; cited from earlier work
[5] = system: HepG2 cells; details: at its IC50 for 48 h; cited from earlier work
[6] = system: HepG2 cells; details: cited from earlier work
[7] = MTT cytotoxicity against THLE-2 normal liver cell line; assay type: cell-based, human; details: human, THLE-2 normal liver epithelial cells; MTT, 48 h; measured in triplicates; read-out: CC50 cytotoxic activity against THLE-2 normal cell line
Description: (§1) The produced formazan was measured by means of the spectrophotometer ROBONIK P2000 at a wavelength of 570 nm. The Cytotoxic concentration values (CC50) of the assessed compounds were reported as the mean of three independent runs ± SE[69].

[8] = system: Transformed Human Liver Epithelial-2 normal cell line (THLE-2); assay: as above; assay type: cell-based; details: CC50 (THLE-2) / IC50 (HepG2)
Description: as §1

[9] = system: Caspase-7; assay: Western blotting of Caspase-7 protein expression in HepG2 cells; assay type: cell-based, human; details: HepG2, 48 h at IC50 concentration; normalized to β-actin
Description: (§2) Western blotting was performed to assess the relative normalized protein expression of the apoptotic proteins Bax and Caspase-7 in HepG2 cancer cells when pre-treated for 48 h with compound 10i at its IC50 concentration in comparison to non-treated HepG2 cells. […] The current findings provide strong evidence for the positive apoptotic activity of compound 10i in HepG2 cells that accompanies its inhibitory activity on cell proliferation.
(§3) Cells were harvested and washed with phosphate buffer saline (PBS). The cells were then lysed in 10 mM Tris–HCl, 100 mM NaCl, 0.5% Triton X-100, pH 7.6 with EDTA-free Protease Inhibitor Cocktail. This was followed by a centrifugation step at 13,000g for 20 min at 4 °C and direct transfer to sodium dodecyl sulfate–polyacrylamide gel (SDS–PAGE). Western blot analysis was performed using primary antibodies against the target proteins and HRP-conjugated secondary antibodies (Table 12). The chemiluminescence reaction was performed using the ECL western blot HRP substrate (Pierce, Thermo Fisher Scientific). Finally, densitometric quantification of Western blot protein bands were performed with IMAGEJ Software.

[10] = system: Bax; assay: Western blotting of Bax protein expression in HepG2 cells; assay type: cell-based, human; details: HepG2, 48 h at IC50 concentration; normalized to β-actin
Description: as §2, §3

[11] = system: VEGFR-2 gene; assay: RT-qPCR of VEGFR-2 gene expression in HepG2 cells; assay type: cell-based, human; details: HepG2, 48 h at IC50 concentration; normalized to β-actin
Description: RT-qPCR was performed to assess the relative normalized gene expression of VEGFR-2 gene in HepG2 cancer cells when pre-treated for 48 h with compound 10i at its IC50 concentration utilizing non-treated HepG2 cells as negative control.
Total RNA was isolated from both 10i-treated and untreated HepG2 cell line pellets using Qiagen RNeasy Mini kit Cat# No. 74104 according to the manufacturer’s guidelines. Then, quantification and quality assessment of the isolated RNA samples were determined by the Nanodrop spectrophotometer at A230, A260 and A280.
cDNA synthesis was performed for RNA using the Promega cDNA Synthesis AMV Reverse Transcriptase Kit (cat# M5108) according to the manufacturer’s instructions. The cDNA synthesis was performed on Bio-Rad 100 Thermal cycler.
Primers for the VEGFR-2 gene were designed and synthesized followed by primer validation and optimization of PCR amplification conditions. RT-qPCR expression analysis for the required genes (ß-actin and VEGFR-2) has been done using the Qiagen Quanti Nova SYBR Green PCR Kit (cat # 208052).

[12] = system: HepG2 cells; assay: Cell cycle analysis by DNA flow cytometry; assay type: cell-based, human; details: HepG2, 48 h at IC50 concentration; frequency of cells, triplicate ± SD
Description: DNA flow cytometry was used to analyze the cell cycle kinetics of HepG2 cancer cells when pre-treated for 48 h with compound 10i at its IC50 concentration. Non-treated HepG2 cells were considered as negative control.
The assay was performed as previously mentioned. In brief, HepG2 cells were pre-incubated with compound 10i at its IC50 concentration for 48 h. Then, about 10^5 cells were attained by trypsinization and washed with phosphate buffer saline (PBS). This was followed by a resuspension step with 60% ice-cold ethanol and incubation till fixation occurs. The fixed cells were washed again and resuspended in a buffer that included 50 μg/mL RNAase A and 10 μg/mL propidium iodide. Finally, cells were incubated at 37 °C in the dark for 20 min and analyzed for the cell cycle kinetics using flow cytometry where FL2 (λex/em 535/617 nm) was used as the signal detector (ACEA Novocyt flowcytometer, ACEA Biosciences Inc., San Diego, CA, USA). A query of 12,000 events was recommended for each sample. ACEA NovoExpress software (ACEA Biosciences Inc., San Diego, CA, USA) was used for analysis.

Chain of VEGFR-2 (P35968 20-1356): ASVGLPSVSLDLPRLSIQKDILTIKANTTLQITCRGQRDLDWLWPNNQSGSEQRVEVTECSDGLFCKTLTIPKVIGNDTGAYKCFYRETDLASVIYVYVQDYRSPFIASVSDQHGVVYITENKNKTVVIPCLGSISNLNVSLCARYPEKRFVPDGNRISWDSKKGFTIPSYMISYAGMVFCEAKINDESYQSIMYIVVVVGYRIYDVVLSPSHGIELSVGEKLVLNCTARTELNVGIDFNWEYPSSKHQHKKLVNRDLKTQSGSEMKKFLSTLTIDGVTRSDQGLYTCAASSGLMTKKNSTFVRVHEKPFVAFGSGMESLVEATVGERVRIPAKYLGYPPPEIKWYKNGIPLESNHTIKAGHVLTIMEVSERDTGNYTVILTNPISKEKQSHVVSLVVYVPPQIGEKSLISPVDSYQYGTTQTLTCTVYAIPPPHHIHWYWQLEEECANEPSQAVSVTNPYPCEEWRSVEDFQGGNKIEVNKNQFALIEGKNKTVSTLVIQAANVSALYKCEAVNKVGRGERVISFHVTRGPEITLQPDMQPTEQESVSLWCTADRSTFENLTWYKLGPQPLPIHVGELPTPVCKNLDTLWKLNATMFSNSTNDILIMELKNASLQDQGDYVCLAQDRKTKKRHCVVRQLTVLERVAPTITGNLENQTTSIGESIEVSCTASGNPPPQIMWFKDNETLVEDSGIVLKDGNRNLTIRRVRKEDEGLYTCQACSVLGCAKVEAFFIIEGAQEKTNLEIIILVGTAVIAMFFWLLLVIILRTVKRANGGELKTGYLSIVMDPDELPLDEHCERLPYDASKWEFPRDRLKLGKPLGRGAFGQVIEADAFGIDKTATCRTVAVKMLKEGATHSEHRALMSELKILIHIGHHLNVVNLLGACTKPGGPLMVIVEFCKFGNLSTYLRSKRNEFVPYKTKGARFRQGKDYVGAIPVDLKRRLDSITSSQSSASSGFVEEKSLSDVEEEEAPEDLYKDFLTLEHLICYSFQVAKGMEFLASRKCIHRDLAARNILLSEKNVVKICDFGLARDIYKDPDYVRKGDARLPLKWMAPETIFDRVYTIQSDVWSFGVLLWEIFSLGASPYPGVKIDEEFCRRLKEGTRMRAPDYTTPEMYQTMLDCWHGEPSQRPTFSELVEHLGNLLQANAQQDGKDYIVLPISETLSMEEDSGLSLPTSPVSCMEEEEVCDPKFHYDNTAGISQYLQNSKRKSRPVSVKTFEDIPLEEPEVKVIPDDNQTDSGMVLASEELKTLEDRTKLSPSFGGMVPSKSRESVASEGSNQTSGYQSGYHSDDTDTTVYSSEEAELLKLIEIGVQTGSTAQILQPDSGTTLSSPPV

Cc1ccc(NC(=O)Nc2ccc(NC(=O)c3c[nH]c4ccc(F)cc4c3=O)cc2)cc1 [Compound 10k, 6-Fluoro-4-oxo-N-(4-(3-(p-tolyl)ureido)phenyl)-1,4-dihydroquinoline-3-carboxamide]
IC50 [1]: 2.226 ± 9e-05 µM
IC50 [2]: 34.2 ± 2.06 µM
melting point: > 300 °C

CNC(=O)c1cc(Oc2ccc(NC(=O)Nc3ccc(Cl)c(C(F)(F)F)c3)cc2)ccn1 [Sorafenib]
Effect on Bax expression in HepG2 cells [3]: no significant upregulation
Effect on caspase-7 expression in HepG2 cells [4]: significantly upregulate the expression of caspase-7
IC50 [2]: 8.38 ± 0.5 µM
Effect on cell cycle kinetics of HepG2 cells [5]: sequestration of cells in the PreG1 (or Sub-G1 (G0)), as well as cell growth arrest in G2/M phase
Combined apoptosis, percent cell population [6]: 6.37%
Late apoptotic phase, percent cell population [6]: 4.2%
CC50 at 48 h [7]: 18.5 µM

O=C(Nc1ccccc1)Nc1ccc(NC(=O)c2c[nH]c3ccc(Cl)cc3c2=O)cc1 [Compound 10a, 6-Chloro-4-oxo-N-(4-(3-phenylureido)phenyl)-1,4-dihydroquinoline-3-carboxamide]
IC50 [1]: 0.138 ± 1e-05 µM
IC50 [2]: 4.6 ± 0.28 µM
melting point: > 300 °C

Cc1ccc(NC(=O)Nc2ccc(NC(=O)c3c[nH]c4ccc(Cl)cc4c3=O)cc2)cc1 [Compound 10b, 6-Chloro-4-oxo-N-(4-(3-(p-tolyl)ureido)phenyl)-1,4-dihydroquinoline-3-carboxamide]
IC50 [1]: 0.578 ± 3e-05 µM
IC50 [2]: 50.8 ± 3.16 µM
melting point: > 300 °C

CC(C)c1ccc(NC(=O)Nc2ccc(NC(=O)c3c[nH]c4ccc(F)cc4c3=O)cc2)cc1 [Compound 10p, 6-Fluoro-N-(4-(3-(4-isopropylphenyl)ureido)phenyl)-4-oxo-1,4-dihydroquinoline-3-carboxamide]
Fold increase in VEGFR-2 inhibitory activity compared to para methyl substituted derivatives 10b and 10k [1]: more than 16 fold
IC50 [1]: 0.097 ± 1e-05 µM
IC50 [2]: 8.14 ± 0.47 µM
melting point: > 300 °C

O=C(Nc1ccccc1)Nc1ccc(NC(=O)c2c[nH]c3ccc(F)cc3c2=O)cc1 [Compound 10j, 6-Fluoro-4-oxo-N-(4-(3-phenylureido)phenyl)-1,4-dihydroquinoline-3-carboxamide]
IC50 [1]: 0.34 ± 1e-05 µM
IC50 [2]: 41.9 ± 2.52 µM
melting point: > 300 °C

O=C(Nc1ccc(NC(=O)c2c[nH]c3ccc(F)cc3c2=O)cc1)Nc1cccc(C(F)(F)F)c1 [Compound 10o, 6-Fluoro-4-oxo-N-(4-(3-(3-(trifluoromethyl)phenyl)ureido)phenyl)-1,4-dihydroquinoline-3-carboxamide]
IC50 [1]: 0.038 ± 2e-05 µM
IC50 [2]: 2.76 ± 0.1 µM
Selectivity index (SI) [8]: 5.52
CC50 at 48 h [7]: 15.2 µM
melting point: > 300 °C

O=C(Nc1ccc(NC(=O)c2c[nH]c3ccc(Cl)cc3c2=O)cc1)Nc1cccc(C(F)(F)F)c1 [Compound 10f, 6-Chloro-4-oxo-N-(4-(3-(3-(trifluoromethyl)phenyl)ureido)phenyl)-1,4-dihydroquinoline-3-carboxamide]
IC50 [1]: 0.1045 ± 5e-06 µM
IC50 [2]: 62 ± 3.87 µM
melting point: > 300 °C

Cc1cccc(NC(=O)Nc2ccc(NC(=O)c3c[nH]c4ccc(Cl)cc4c3=O)cc2)c1 [Compound 10c, 6-Chloro-4-oxo-N-(4-(3-(m-tolyl)ureido)phenyl)-1,4-dihydroquinoline-3-carboxamide]
IC50 [1]: 0.169 ± 1e-05 µM
IC50 [2]: 4.14 ± 0.25 µM
melting point: > 300 °C

Cc1cccc(NC(=O)Nc2ccc(NC(=O)c3c[nH]c4ccc(F)cc4c3=O)cc2)c1 [Compound 10l, 6-Fluoro-4-oxo-N-(4-(3-(m-tolyl)ureido)phenyl)-1,4-dihydroquinoline-3-carboxamide]
IC50 [1]: 0.317 ± 1e-05 µM
IC50 [2]: 14.2 ± 0.82 µM
melting point: > 300 °C

Cc1ccccc1NC(=O)Nc1ccc(NC(=O)c2c[nH]c3ccc(Cl)cc3c2=O)cc1 [Compound 10d, 6-Chloro-4-oxo-N-(4-(3-(o-tolyl)ureido)phenyl)-1,4-dihydroquinoline-3-carboxamide]
IC50 [1]: 0.069 ± 2e-05 µM
IC50 [2]: 1.07 ± 0.06 µM
melting point: > 300 °C

O=C(Nc1ccc(F)cc1)Nc1ccc(NC(=O)c2c[nH]c3ccc(F)cc3c2=O)cc1 [Compound 10n, 6-Fluoro-N-(4-(3-(4-fluorophenyl)ureido)phenyl)-4-oxo-1,4-dihydroquinoline-3-carboxamide]
IC50 [1]: 0.257 ± 1e-05 µM
IC50 [2]: 2.88 ± 0.14 µM
melting point: > 300 °C

Cc1ccccc1NC(=O)Nc1ccc(NC(=O)c2c[nH]c3ccc(F)cc3c2=O)cc1 [Compound 10m, 6-Fluoro-4-oxo-N-(4-(3-(o-tolyl)ureido)phenyl)-1,4-dihydroquinoline-3 carboxamide]
IC50 [1]: 0.181 ± 1e-05 µM
IC50 [2]: 13 ± 0.75 µM
melting point: > 300 °C

O=C(Nc1ccc(NC(=O)c2c[nH]c3ccc(Cl)cc3c2=O)cc1)Nc1ccc2ncsc2c1 [Compound 10h, N-(4-(3-(Benzo[d]thiazol-6-yl)ureido)phenyl)-6-chloro-4-oxo-1,4-dihydroquinoline-3-carboxamide]
IC50 [1]: 0.937 ± 4e-05 µM
Fold decrease in VEGFR-2 inhibitory activity ([1]; benzothiazole derivative, comparator not named): about 5.5 fold
IC50 [2]: 14.9 ± 0.52 µM
melting point: > 300 °C

O=C(Nc1ccc(F)cc1)Nc1ccc(NC(=O)c2c[nH]c3ccc(Cl)cc3c2=O)cc1 [Compound 10e, 6-Chloro-N-(4-(3-(4-fluorophenyl)ureido)phenyl)-4-oxo-1,4-dihydroquinoline-3-carboxamide]
IC50 [1]: 0.197 µM and 0.179 µM
IC50 [2]: 0.88 ± 0.05 µM
melting point: > 300 °C

N#Cc1ccc(NC(=O)Nc2ccc(NC(=O)c3c[nH]c4ccc(Cl)cc4c3=O)cc2)cc1 [Compound 10g, 6-Chloro-N-(4-(3-(4-cyanophenyl)ureido)phenyl)-4-oxo-1,4-dihydroquinoline-3-carboxamide]
IC50 [1]: 1.603 ± 6e-05 µM
IC50 [2]: 43.1 ± 2.59 µM
melting point: > 300 °C

CC(C)c1ccc(NC(=O)Nc2ccc(NC(=O)c3c[nH]c4ccc(Cl)cc4c3=O)cc2)cc1 [Compound 10i, 6-Chloro-N-(4-(3-(4-isopropylphenyl)ureido)phenyl)-4-oxo-1,4-dihydroquinoline-3-carboxamide]
Fold increase in VEGFR-2 inhibitory activity compared to para methyl substituted derivatives 10b and 10k [1]: more than 16 fold
IC50 [1]: 0.036 ± 1e-05 µM
Induction of Caspase-7 protein expression compared to negative control [9]: ≤ 6 folds
IC50 [2]: 1.6 ± 0.17 µM
Induction of Bax protein expression compared to negative control [10]: up to 20 folds
Decrease of VEGFR-2 gene expression compared to untreated cells [11]: 84%
Selectivity index (SI) [8]: 13.13
CC50 at 48 h [7]: 21 µM
Freq G1 [12]: ***2.067 ± 0.189
Freq G2 [12]: ***49.80 ± 1.466
Freq S [12]: ***7.920 ± 0.2117
Freq Sub-G1 [12]: ***20.80 ± 0.7102
